In US7790435B2, “Chemical induction in quiescence in bacteria” (priority 2005, dated 2010):
Entries after “also recorded” stand apart in the source; their conditions may differ. Where two headings read alike, the source gives them in different places.

What was measured:
[1] = test system: E. coli W3110hns-205::Tn10; type: cell-based; conditions: 3 mM, L-broth containing tetracycline, 37° C.; for Growth inhibition: semi-quantitative estimate
Description: A single E. coli colony (W3110 hns-205::Tn10) was picked from an L-agar plate containing tetracycline (10 μg ml^−1) and inoculated into 10 ml L-broth. This was grown overnight in a shaking incubator at 37° C. 200 μl of overnight culture was inoculated into 20 ml L-broth in a 50 ml conical flask, and grown at 37° C. in a shaking water bath to an optical density at 600 nm (OD600) of between 0.2 and 0.3. Two ml of this culture was inoculated into 18 ml pre-warmed L-broth containing tetracycline (10 μg ml^−1) to which had been added an appropriate volume of indole, isoquinoline, indoline, tryptamine, quinoline, or pyrrole stock solution (0.5 M in ethanol), IAA stock solution (0.5 M in water), 3-β-indoleacrylic acid stock solution (0.125 M in ethanol) or 1-acetylindoline stock solution (0.25 M in ethanol) to give a final concentration of 3 mM.

E. coli gene mdtE = conditions: 2 mM indole; cited from earlier work
[2] = test system: E. coli W3110hns-205::Tn10; type: cell-based; conditions: L-broth containing tetracycline
[3] = test system: W3110hns-205 containing pCMT2blacZ; assay: Growth and beta-galactosidase (LacZ) expression in indole-treated culture (FIG. 5); type: cell-based, E. coli; conditions: 2 mM indole, 42° C.
Description: For the experimentation for which results are shown in FIGS. 5a and 5b, W3110hns-205 containing pCMT2blacZ (a plasmid which contains the coding sequence for beta-galactosidase, transcribed from promoter lambda PL under the control of the temperature sensitive repressor cI857) was grown in L-broth at 30° C. to OD600=0.15. The culture was then divided into two and the temperature was increased to 42° C. to induce lacZ expression. Indole (2 mM) was added immediately to one subculture to induce a quiescent state, while the other was an indole-free control. Beta-galactosidase activities were measured for 24 hours after the temperature shift.

W3110 hns205 = assay: Indole-induced quiescence of W3110 hns205 in broth culture (FIG. 2a, 2b, 3); type: cell-based, E. coli
Description: (§1) For the experimentation for which results are shown in FIG. 2a and FIG. 2b, W3110 and W3110hns-205 (Mukherjee et al., 2004) were cultured at 37° C. in tryptone water broth (Oxoid) supplemented with 0, 2 or 4 mM indole.
For the experimentation for which results are shown in FIG. 3a and FIG. 3b, W3110hns205 was cultured in L-broth at 30° C. (FIG. 3a) or 42° C. (FIG. 3b). At t=0 each culture was split into two and indole (final concentration 2 mM) was added to one part. […] The control cultures (no indole) continued to grow until they reached stationary phase.

W3110hns-205 pcIts857 = assay: Comparison of indole- and Rcd-induced quiescence (FIG. 7); type: cell-based, E. coli; conditions: 42° C., L-broth
Description: The experiment for which results are shown in FIG. 7 compared the growth kinetics of Rcd-induced and indole-induced quiescent cultures. Cultures of W3110hns-205 pcIts^857 (Remaut et al., 1983) transformed with either pRcd1 (Rcd expression plasmid; Mukherjee et al., 2004)) or pUCdeltalacZ (control plasmid; no Rcd) were grown in L-broth at 30° C. for 90 minutes, then 2×5 ml aliquots of each culture were transferred to 50 ml conical flasks, pre-warmed to 42° C. (t=0). The temperature shift induces Rcd expression in cultures containing plasmid pRcdl but not in cultures containing pUCdeltalacZ. For each pair of cultures, indole (final concentration 2 mM) was added to one of them. IPTG was added to all cultures so that the induction of chromosomal LacZ could be monitored. Culture density was monitored over the following 24 h.

W3110 rnc-14 = assay: Indole-induced quiescence in an rnc mutant (FIG. 6); type: cell-based, E. coli; conditions: 2 mM indole
Description: For the experimentation for which results are shown in FIG. 6, a culture of W3110 rnc-14 was grown in L-broth at 37° C. to a density of OD600=0.15. The culture was divided into two (t=0) and indole (2 mM) was added to one of the sub-cultures. Growth of the cultures was measured over the following 27 hours. While the control culture eventually reached stationary phase at OD600=2, the indole-treated culture entered a non-growing state after approximately 7 hours and remained at a density of OD600=1 (approx.).

E. coli BW25113 = assay: Growth inhibition of E. coli BW25113 by indole in L-broth (FIG. 1); type: cell-based; conditions: 37° C.
Description: For the experimentation for which results are shown in FIG. 1, E. coli BW25113 (Datsenko & Wanner, 2000)was grown overnight at 37° C. in L-broth (Kennedy, 1971). The stationary phase culture was used to inoculate a series of L-broth cultures supplemented with indole (0-6 mM) and their growth was monitored over the next 7 hours.

[4] = test system: W3110hns205 containing plasmid pCMT2bompAhGM-CSF; assay: hGM-CSF expression in indole-treated cultures, ELISA of total cell lysates (FIG. 4); type: cell-based, E. coli; conditions: for hGM-CSF production: 42° C., L-broth
Description: For the experimentation for which results are shown in FIG. 4, W3110hns205 containing plasmid pCMT2bompAhGM-CSF^(see below) (which contains the coding sequence for the cytokine hGM-CSF fused to an ompA leader sequence, transcribed from promoter lambda PL under the control of the temperature sensitive repressor cI857) was grown in L-broth at 30° C. to an OD600 of 0.36, at which point the culture was transferred to 42° C. to induce cytokine expression. Simultaneously indole was added to the growth medium at final concentrations of 0, 2 or 4 mM (FIG. 4a).
Cytokine production was quantified by ELISA of total cell lysates and assay data were normalised for culture density (FIG. 4b). […] In the control culture (no indole), hGM-CSF increased in the first hour before declining.

E. coli W3110 = assay: Growth of W3110 in tryptone water broth supplemented with indole (FIG. 2a); type: cell-based; conditions: 37° C.
Description: as §1

Which “effect on growth (in words)” value [1] does the source give for CC(=O)N1CCc2ccccc21 [1-acetylindoline] here?
Its value is “substantial growth inhibition, but less severe than that shown by indole; also recorded: significant inhibitory effects”.

Which results are given for O=C(O)/C=C/c1c[nH]c2ccccc12 [3-β-indoleacrylic acid]?
effect on growth (in words) [1]: very similar effects to indole; also recorded: significant inhibitory effects; Growth inhibition [1]: +++

What does the source list for O=C(O)Cc1c[nH]c2ccccc12 [IAA, indole-3-acetic acid]?
effect on growth (in words) [1]: slight stimulation of growth; Growth inhibition [1]: −^b; effect on growth (in words) ([1]; listed as indole acetic acid): not observed to have a significant effect on growth

Which results are given for c1ccc2[nH]ccc2c1 [indole]?
elevation of expression (E. coli gene mdtE): 22 fold; minimum concentration which causes immediate growth inhibition [2]: 3 mM; Growth inhibition [1]: +++; final OD600 ([3]; L-broth): 0.78; beta-galactosidase activity ([3]; after 24 h): 27,000 MU; effect on growth (W3110 hns205; 2 mM indole, L-broth): enter a quiescent state; induction of quiescence (W3110 hns205; 2 mM indole, L-broth, 30° C. or 42° C.): induce quiescence; also recorded: entered the quiescent state with similar kinetics at both temperatures; persistence of the quiescent state (W3110 hns205; 2 mM indole, at 30° C., 37° C. and 42° C.): at least 24 hours; effect on growth (W3110 hns205; 4 mM indole, L-broth): complete growth inhibition; effect on growth (W3110 hns205; 4 mM indole, tryptone water broth, 37° C.): almost complete inhibition of growth; appropriate final concentration of indole to induce quiescence (W3110 hns205; shake-flask culture): 2 mM; induction of quiescence (W3110hns-205 pcIts857; 2 mM indole plus Rcd expression (pRcd1)): entered a quiescent state but more rapidly and reached a lower final density; induction of quiescence (W3110hns-205 pcIts857; 2 mM indole, no Rcd): enter a quiescent state with similar growth kinetics; also recorded: entered a quiescent state; induction of quiescence (W3110 rnc-14): induce quiescence; also recorded: enters quiescence; culture density OD600 in non-growing state (W3110 rnc-14; L-broth, 37° C.): ~1; time to enter a non-growing state (W3110 rnc-14; L-broth, 37° C.): approximately 7 hours; effect on growth (E. coli BW25113; 1 mM indole): growth inhibition was not evident; also recorded: no effect upon growth; effect on growth (E. coli BW25113; 2 or 3 mM indole): partial inhibition; also recorded: slowing of the growth rate; effect on growth (E. coli BW25113; 4, 5 or 6 mM indole): Growth inhibition was severe; also recorded: almost complete inhibition of growth; hGM-CSF production ([4]; 2 mM indole, quiescent culture): increased rapidly for the first hour; peak hGM-CSF concentration of control culture (no indole) relative to quiescent culture ([4]; 2 mM indole, normalised for culture density): less than half; hGM-CSF production ([4]; 4 mM indole): produced no hGM-CSF; effect on growth (E. coli W3110; 2 mM indole): partial growth inhibition; also recorded: reduced growth rate; effect on growth (E. coli W3110; 4 mM indole): inhibited growth severely; also recorded: completely inhibited growth

With c1ccc2c(c1)CCN2 [indoline] as the compound, how does the “effect on growth (in words)” value [1] read?
Its value is “some inhibition of growth but their effect was less severe than indole”.

And the “effect on growth (in words)” value ([1]; listed as Indoline)?
The value was “slight growth inhibition”.

For c1ccc2cnccc2c1 [isoquinoline], which “effect on growth (in words)” value [1] is on record?
The value was “very similar effects to indole; also recorded: significant inhibitory effects”.

What about the Growth inhibition [1] of the same compound?
Its Growth inhibition is “+++”.

What about the “effect on growth (in words)” value ([1]; listed as Isoquinoline) of the same compound?
The value was “very similar effects to indole”.

For c1ccc2ncccc2c1 [quinoline], which “effect on growth (in words)” value [1] is on record?
The value was “significant inhibitory effects”.

And the “effect on growth (in words)” value ([1]; listed as Quinoline)?
The value was “some inhibition of growth but their effect was less severe than indole; also recorded: substantial growth inhibition, but less severe than that shown by indole”.

For NCCc1c[nH]c2ccccc12 [tryptamine], which “effect on growth (in words)” value [1] is on record?
Its value is “some inhibition of growth but their effect was less severe than indole; also recorded: slight growth inhibition”.

What does the source list for pyrrole?
effect on growth (in words) [1]: no observed inhibitory effect; Growth inhibition [1]: −; effect on growth (in words) ([1]; listed as Pyrrole): not observed to have a significant effect on growth
